Results on 3 compounds are retold here after PMC4211601, “Defining the conformation of human mincle that interacts with mycobacterial trehalose dimycolate” (Glycobiology, 2014).

This assay deals with T1, human mincle CRD (Homo sapiens, UniProt Q9ULY5).
T1 construct: gene CLEC4E; C-terminal biotinylation tag kept; immobilised on streptavidin plates
T1 sequence (Q9ULY5 74-219): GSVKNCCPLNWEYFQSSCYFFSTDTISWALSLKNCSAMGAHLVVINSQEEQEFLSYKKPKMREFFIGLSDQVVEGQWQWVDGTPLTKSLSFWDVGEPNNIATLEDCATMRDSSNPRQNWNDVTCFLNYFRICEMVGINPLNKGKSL
The assay can be described thus: competition with […]-Man31-BSA on immobilised CRD. The format is binding.

`CCCCCC(=O)OC[C@H]1O[C@H](O[C@H]2O[C@H](COC(=O)CCCCC)[C@@H](O)[C@H](O)[C@H]2O)[C@H](O)[C@@H](O)[C@@H]1O` [dihexanoate derivative] registered an inhibitory constant (Ki) of 12.5 µM.
`CCCCCC(=O)OC[C@H]1O[C@H](O[C@H]2O[C@H](CO)[C@@H](O)[C@H](O)[C@H]2O)[C@H](O)[C@@H](O)[C@@H]1O` [monohexanoate derivative] displayed a Ki of 184 ± 6 µM.
As to `CCCCCCCC(=O)OC[C@H]1O[C@H](O[C@H]2O[C@H](CO)[C@@H](O)[C@H](O)[C@H]2O)[C@H](O)[C@@H](O)[C@@H]1O` [monooctanoyl trehalose], the affinity, expressed as Ki, was 45 ± 4 µM.
